Test results reported in US9512132B2, “Pyrazole compounds as CB2 agonists” (Hoffmann-La Roche Inc., priority 2013, dated 2016).
Read-outs that look alike come from different tables or passages of the source.

Columns and labels:
human CB1 receptor = human CB1 receptor (Homo sapiens (Human), UniProt P21554); assay: cAMP assay, CHO cells expressing human CB1 receptors; format: cell-based
Method: (§1) CHO cells expressing human CB1 or CB2 receptors are seeded 17-24 hours prior to the experiment 50.000 cells per well in a black 96 well plate with flat clear bottom (Corning Costar #3904) in DMEM (Invitrogen No. 31331), lx HT supplement, with 10% fetal calf serum and incubated at 5% CO2 and 37° C. in a humidified incubator. The growth medium was exchanged with Krebs Ringer Bicarbonate buffer with 1 mM IBMX and incubated at 30° C. for 30 min. Compounds were added to a final assay volume of 100 μl and incubated for 30 min at 30° C. Using the cAMP-Nano-TRF detection kit the assay (Roche Diagnostics) was stopped by the addition of 50 μl lysis reagent (Tris, NaCl, 1.5% Triton X100, 2.5% NP40, 10% NaN3) and 50 μl detection solutions (20 μM mAb Alexa700-cAMP 1:1, and 48 μM Ruthenium-2-AHA-cAMP) and shaken for 2 h at room temperature. The time-resolved energy transfer is measured by a TRF reader (Evotec Technologies GmbH), equipped with a ND:YAG laser as excitation source. The plate is measured twice with the excitation at 355 nm and at the emission with a delay of 100 ns and a gate of 100 ns, total exposure time 10 s at 730 (bandwidth 30 nm) or 645 nm (bandwidth 75 nm), respectively. The FRET signal is calculated as follows: FRET=T730-Alexa730-P(T645-B645) with P=Ru730-B730/Ru645-B645, where T730 is the test well measured at 730 nM, T645 is the test well measured at 645 nm, B730 and B645 are the buffer controls at 730 nm and 645 nm, respectively. cAMP content is determined from the function of a standard curve spanning from 10 μM to 0.13 nM cAMP.
(§2) EC50 values were determined using Activity Base analysis (ID Business Solution, Limited). The EC50 values for a wide range of cannabinoid agonists generated from this assay were in agreement with the values published in the scientific literature.

human CB2 receptor = human CB2 receptor (Homo sapiens (Human), UniProt P34972); assay: cAMP assay, CHO cells expressing human CB2 receptors; format: cell-based
Method: as §1, §2

[1] = functional cAMP assay, CHO cells expressing human CB1, read-out: human CB1 EC50
[2] = functional cAMP assay, CHO cells expressing human CB2, read-out: human CB2 EC50

Chain of human CB2 receptor (P34972 whole entry): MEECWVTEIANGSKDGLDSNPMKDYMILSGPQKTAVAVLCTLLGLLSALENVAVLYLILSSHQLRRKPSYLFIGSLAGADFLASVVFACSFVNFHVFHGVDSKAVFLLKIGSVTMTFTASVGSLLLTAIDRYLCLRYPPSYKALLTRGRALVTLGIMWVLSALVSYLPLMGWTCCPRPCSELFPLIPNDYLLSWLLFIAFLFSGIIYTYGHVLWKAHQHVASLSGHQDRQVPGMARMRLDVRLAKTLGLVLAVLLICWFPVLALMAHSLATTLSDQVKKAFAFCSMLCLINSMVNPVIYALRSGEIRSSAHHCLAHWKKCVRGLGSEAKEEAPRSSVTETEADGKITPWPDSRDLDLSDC
Chain of human CB1 receptor (P21554 whole entry): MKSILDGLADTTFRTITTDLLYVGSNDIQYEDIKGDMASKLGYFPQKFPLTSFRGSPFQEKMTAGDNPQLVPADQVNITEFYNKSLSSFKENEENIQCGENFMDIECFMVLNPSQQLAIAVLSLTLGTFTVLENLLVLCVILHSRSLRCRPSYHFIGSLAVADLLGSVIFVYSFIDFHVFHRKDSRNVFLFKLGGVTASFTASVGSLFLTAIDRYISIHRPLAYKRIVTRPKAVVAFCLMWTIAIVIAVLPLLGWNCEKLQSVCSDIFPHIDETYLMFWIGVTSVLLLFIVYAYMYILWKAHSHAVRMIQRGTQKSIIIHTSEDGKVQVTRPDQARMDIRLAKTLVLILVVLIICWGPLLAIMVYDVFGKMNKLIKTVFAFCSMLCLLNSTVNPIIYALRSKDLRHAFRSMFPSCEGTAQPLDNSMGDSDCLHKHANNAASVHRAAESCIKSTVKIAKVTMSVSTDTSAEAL

In the case of `Cn1nncc1Cn1ncc2c(N3CCC(F)(F)C3)nc(C(C)(C)C)nc21` [Example 19, 6-tert-Butyl-4-(3,3-difluoro-pyrrolidin-1-yl)-1-(3-methyl-3H-[1,2,3]triazol-4-ylmethyl)-1H-pyrazolo[3,4-d]pyrimidine], the EC50 (human CB1 receptor) is reported as greater than 10000 nM and the EC50 (human CB2 receptor) is reported as 1.4 nM.

With `FC1(F)CCN(c2nc(Cl)nc3c2cnn3Cc2ccccc2C(F)(F)F)C1` [Example 37, 6-Chloro-4-(3,3-difluoropyrrolidin-1-yl)-1-[[2-(trifluoromethyl)phenyl]methyl]pyrazolo[3,4-d]pyrimidine] the EC50 (human CB1 receptor; [1]) was greater than 10000 nM and the EC50 (human CB2 receptor; [2]) was 17.2 nM.

Work on `COC[C@H]1CCCN1c1nc(C(C)(C)C)nc2c1cnn2Cc1ccccc1C(F)(F)F` [Example 35, 6-tert-Butyl-4-((R)-2-methoxymethyl-pyrrolidin-1-yl)-1-[(2-trifluoromethylphenyl)methyl]-1H-pyrazolo[3,4-d]pyrimidine] yielded an EC50 (human CB1 receptor; [1]) greater than 10000 nM and an EC50 (human CB2 receptor; [2]) of 13.3 nM.

Work on `COc1ccc(Cn2ncc3c(N4CCC(F)(F)C4)cc(C4CC4)nc32)cc1` [Example 24, 6-Cyclopropyl-4-(3,3-difluoro-pyrrolidin-1-yl)-1-[(4-methoxyphenyl)methyl]-1H-pyrazolo[3,4-b]pyridine] yielded an EC50 (human CB1 receptor; [1]) greater than 10000 nM and an EC50 (human CB2 receptor; [2]) of 17.5 nM.

With `CC(C)(C)COc1nc(N2CCC(F)(F)C2)c2cnn(Cc3ccccc3C(F)(F)F)c2n1` [Example 38, 4-(3,3-Difluoropyrrolidin-1-yl)-6-(2,2-dimethylpropoxy)-1-[[2-(trifluoromethyl)phenyl]methyl]pyrazolo[3,4-d]pyrimidine] the EC50 (human CB1 receptor; [1]) was greater than 10000 nM and the EC50 (human CB2 receptor; [2]) was 16 nM.

In the case of `CC(C)(C)c1nc(N2CC[C@H](O)C2)c2cnn(Cc3ccccc3S(C)(=O)=O)c2n1` [Example 30, (S)-1-[6-tert-Butyl-1-(2-methanesulfonyl-benzyl)-1H-pyrazolo[3,4-d]pyrimidin-4-yl]-pyrrolidin-3-ol], the EC50 (human CB1 receptor; [1]) is reported as greater than 10000 nM and the EC50 (human CB2 receptor; [2]) is reported as 2.4 nM.

Work on `CC(C)(C)c1nc(N2CCC[C@@H]2CO)c2cnn(Cc3ccccc3C(F)(F)F)c2n1` [Example 34, {(R)-1-[6-tert-Butyl-1-[(2-trifluoromethylphenyl)methyl]-1H-pyrazolo[3,4-d]pyrimidin-4-yl]pyrrolidin-2-yl}-methanol] yielded an EC50 (human CB1 receptor; [1]) greater than 10000 nM and an EC50 (human CB2 receptor; [2]) of 5 nM.

Compound `CC(C)(C)c1nc(N2CCC(F)(F)C2)c2cnn(Cc3ccccc3S(C)(=O)=O)c2n1` [Example 10, 6-tert-Butyl-4-(3,3-difluoro-pyrrolidin-1-yl)-1-(2-methanesulfonyl-benzyl)-1H-pyrazolo[3,4-d]pyrimidine] has an EC50 (human CB1 receptor; [1]) of 337 nM and an EC50 (human CB2 receptor; [2]) of 0.7 nM.

Compound `CC(C)(C)c1nc(N2CCC(F)(F)C2)c2cnn(Cc3ccc(F)cc3Cl)c2n1` [Example 6, 6-tert-Butyl-1-[(2-chloro-4-fluorophenyl)methyl]-4-(3,3-difluoro-pyrrolidin-1-yl)-1H-pyrazolo[3,4-d]pyrimidine] has an EC50 (human CB1 receptor; [1]) greater than 10000 nM and an EC50 (human CB2 receptor; [2]) of 5.9 nM.

For `COc1ccc(Cn2ncc3c(N4CC[C@H](O)C4)nc(C(C)(C)C)nc32)cc1` [Example 23, (S)-1-[6-tert-Butyl-1-[(4-methoxyphenyl)methyl]-1H-pyrazolo[3,4-d]pyrimidin-4-yl]-pyrrolidin-3-ol], the EC50 (human CB1 receptor; [1]) was greater than 10000 nM and the EC50 (human CB2 receptor; [2]) was 5.5 nM.

`Cc1nonc1Cn1ncc2c(N3CCC(F)(F)C3)nc(C3CC3)cc21` [Example 27, 6-Cyclopropyl-4-(3,3-difluoro-pyrrolidin-1-yl)-1-(4-methyl-furazan-3-ylmethyl)-1H-pyrazolo[4,3-c]pyridine] gave an EC50 (human CB1 receptor; [1]) greater than 10000 nM and an EC50 (human CB2 receptor; [2]) of 42.5 nM.

`CC(C)(C)c1nc(N2CC[C@H](O)C2)c2cnn(Cc3nnnn3C3CC3)c2n1` [Example 33, (S)-1-[6-tert-Butyl-1-(1-cyclopropyl-1H-tetrazol-5-ylmethyl)-1H-pyrazolo[3,4-d]pyrimidin-4-yl]-pyrrolidin-3-ol] was tested, and the EC50 (human CB1 receptor; [1]) was greater than 10000 nM and the EC50 (human CB2 receptor; [2]) was 8.8 nM.

For `COc1ccc(Cn2ncc3c(N4CCC(F)(F)C4)nc(C(C)(C)C)nc32)cc1` [Example 1, 6-tert-Butyl-4-(3,3-difluoro-pyrrolidin-1-yl)-[(4-methoxyphenyl)methyl]-1H-pyrazolo[3,4-d]pyrimidine], the EC50 (human CB1 receptor; [1]) was greater than 10000 nM and the EC50 (human CB2 receptor; [2]) was 4.8 nM.

`CC(C)(C)c1nc(N2CCC(F)(F)C2)c2cnn(CC(=O)c3ccncc3)c2n1` [Example 21, 2-[6-tert-Butyl-4-(3,3-difluoro-pyrrolidin-1-yl)-pyrazolo[3,4-d]pyrimidin-1-yl]-1-pyridin-4-yl-ethanone] gave an EC50 (human CB1 receptor; [1]) greater than 10000 nM and an EC50 (human CB2 receptor; [2]) of 3.4 nM.

Compound `CC(C)(C)c1nc(N2CCC(F)(F)C2)c2cnn(Cc3cccnc3Cl)c2n1` [Example 12, 6-tert-Butyl-1-(2-chloro-pyridin-3-ylmethyl)-4-(3,3-difluoro-pyrrolidin-1-yl)-1H-pyrazolo[3,4-d]pyrimidine] has an EC50 (human CB1 receptor; [1]) of 1570 nM and an EC50 (human CB2 receptor; [2]) of 1.6 nM.

With `CC(C)(C)c1nc(N2CCC(F)(F)C2)c2cnn(Cc3nnnn3C3CC3)c2n1` [Example 16, 6-tert-Butyl-1-(1-cyclopropyl-1H-tetrazol-5-ylmethyl)-4-(3,3-difluoro-pyrrolidin-1-yl)-1H-pyrazolo[3,4-d]pyrimidine] the EC50 (human CB1 receptor; [1]) was greater than 10000 nM and the EC50 (human CB2 receptor; [2]) was 0.6 nM.

Work on `CCOc1nc(C(C)(C)C)nc2c1cnn2Cc1ccccc1Cl` [Example 5, 6-tert-Butyl-1-[(2-chlorophenyl)methyl]-4-ethoxy-1H-pyrazolo[3,4-d]pyrimidine] yielded an EC50 (human CB1 receptor; [1]) greater than 10000 nM and an EC50 (human CB2 receptor; [2]) of 25.5 nM.

`CC(C)(C)c1nc(N2CC[C@H](O)C2)c2cnn(Cc3ccccc3Cl)c2n1` [Example 3, (S)-1-[6-tert-Butyl-1-[(2-chlorophenyl)methyl]-1H-pyrazolo[3,4-d]pyrimidin-4-yl]-pyrrolidin-3-ol] was tested, and the EC50 (human CB1 receptor; [1]) was greater than 10000 nM and the EC50 (human CB2 receptor; [2]) was 5.1 nM.

In the case of `Cc1nonc1Cn1ncc2c(N3CCC(F)(F)C3)nc(C(C)(C)C)nc21` [Example 9, 6-tert-Butyl-4-(3,3-difluoro-pyrrolidin-1-yl)-1-(4-methyl-furazan-3-ylmethyl)-1H-pyrazolo[3,4-d]pyrimidine], the EC50 (human CB1 receptor; [1]) is reported as greater than 10000 nM and the EC50 (human CB2 receptor; [2]) is reported as 0.5 nM.

Work on `CC(C)(C)c1nc(N2CCC(F)(F)C2)c2cnn(C3CCOC3)c2n1` (centres unmarked) [Example 14, 6-tert-Butyl-4-(3,3-difluoro-pyrrolidin-1-yl)-1-(tetrahydro-furan-3-yl)-1H-pyrazolo[3,4-d]pyrimidine] yielded an EC50 (human CB1 receptor; [1]) greater than 10000 nM and an EC50 (human CB2 receptor; [2]) of 1.3 nM.

Work on `CC(C)(C)c1nc(N2CCC(F)(F)C2)c2cnn(Cc3ccccc3C(F)(F)F)c2n1` [Example 7, 6-tert-Butyl-4-(3,3-difluoro-pyrrolidin-1-yl)-1-[(2-trifluoromethylphenyl)methyl]-1H-pyrazolo[3,4-d]pyrimidine] yielded an EC50 (human CB1 receptor; [1]) greater than 10000 nM and an EC50 (human CB2 receptor; [2]) of 1.1 nM.

`Cc1nnc(Cn2ncc3c(N4CCC(F)(F)C4)nc(C(C)(C)C)nc32)n1C` [Example 17, 6-tert-Butyl-4-(3,3-difluoro-pyrrolidin-1-yl)-1-(4,5-dimethyl-4H-[1,2,4]triazol-3-ylmethyl)-1H-pyrazolo[3,4-d]pyrimidine] gave an EC50 (human CB1 receptor; [1]) greater than 10000 nM and an EC50 (human CB2 receptor; [2]) of 3 nM.

In the case of `CC(C)(C)c1nc(N2CC[C@H](O)C2)c2cnn(Cc3ccccc3C(F)(F)F)c2n1` [Example 29, (S)-1-[6-tert-Butyl-1-[(2-trifluoromethylphenyl)methyl]-1H-pyrazolo[3,4-d]pyrimidin-4-yl]pyrrolidin-3-ol], the EC50 (human CB1 receptor; [1]) is reported as greater than 10000 nM and the EC50 (human CB2 receptor; [2]) is reported as 1.9 nM.

Work on `Cc1nnc(Cn2ncc3c(N4CC=C(F)C4)nc(C(C)(C)C)nc32)n1C` [Example 18, 6-tert-Butyl-1-(4,5-dimethyl-4H-[1,2,4]triazol-3-ylmethyl)-4-(3-fluoro-2,5-dihydro-pyrrol-1-yl)-1H-pyrazolo[3,4-d]pyrimidine] yielded an EC50 (human CB1 receptor; [1]) greater than 10000 nM and an EC50 (human CB2 receptor; [2]) of 26.2 nM.

With `Cn1nnnc1Cn1ncc2c(N3CC[C@H](O)C3)nc(C(C)(C)C)nc21` [Example 31, (S)-1-[6-tert-Butyl-1-(1-methyl-1H-tetrazol-5-ylmethyl)-1H-pyrazolo[3,4-d]pyrimidin-4-yl]-pyrrolidin-3-ol] the EC50 (human CB1 receptor; [1]) was greater than 10000 nM and the EC50 (human CB2 receptor; [2]) was 17.3 nM.

`CC(C)(C)c1nc(N2CC[C@H](O)C2)c2cnn(Cc3ncccc3Cl)c2n1` [Example 32, (S)-1-[6-tert-Butyl-1-(3-chloro-pyridin-2-ylmethyl)-1H-pyrazolo[3,4-d]pyrimidin-4-yl]-pyrrolidin-3-ol] showed an EC50 (human CB1 receptor; [1]) greater than 10000 nM and an EC50 (human CB2 receptor; [2]) of 1.5 nM.

With `Cn1nncc1Cn1ncc2c(N3CC=C(F)C3)nc(C(C)(C)C)nc21` [Example 20, 6-tert-Butyl-4-(3-fluoro-2,5-dihydro-pyrrol-1-yl)-1-(3-methyl-3H-[1,2,3]triazol-4-ylmethyl)-1H-pyrazolo[3,4-d]pyrimidine] the EC50 (human CB1 receptor; [1]) was greater than 10000 nM and the EC50 (human CB2 receptor; [2]) was 1.6 nM.

`Cc1nonc1Cn1ncc2c(N3CC[C@H](O)C3)nc(C(C)(C)C)nc21` [Example 25, (S)-1-[6-tert-Butyl-1-(4-methyl-furazan-3-ylmethyl)-1H-pyrazolo[3,4-d]pyrimidin-4-yl]-pyrrolidin-3-ol] showed an EC50 (human CB1 receptor; [1]) greater than 10000 nM and an EC50 (human CB2 receptor; [2]) of 0.4 nM.
